Test results: article PMC7177946, “Effect of Ferulic Acid, a Phenolic Inducer of Fungal Laccase, on 26S Proteasome Activities In Vitro” (International Journal of Molecular Sciences, 2020)

Tests used:
[1] = biological target: T1, human 26S proteasome, trypsin-like (TL) site, β2 subunit (Homo sapiens, UniProt Q99436); test: fluorogenic peptidase assay, Z-GGR-AMC; assay type: biochemical; conditions: read-out: % inhibition at 1 mM
T1 construct: gene PSMB7; commercial purified 26S complex (BostonBiochem); beta subunits mature with N-terminal Thr; with Proteasome subunit beta type-5; Proteasome subunit beta type-6
T1 sequence (Q99436 44-277): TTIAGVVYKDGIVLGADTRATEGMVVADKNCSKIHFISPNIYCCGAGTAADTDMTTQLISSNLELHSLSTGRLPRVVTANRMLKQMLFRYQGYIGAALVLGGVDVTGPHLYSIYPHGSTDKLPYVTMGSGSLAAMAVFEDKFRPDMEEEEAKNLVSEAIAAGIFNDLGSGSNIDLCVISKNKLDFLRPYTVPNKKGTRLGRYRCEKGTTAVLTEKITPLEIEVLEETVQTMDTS

[2] = biological target: T2, human 26S proteasome, chymotrypsin-like (CHTL) site, β5 subunit (Homo sapiens, UniProt P28074); test: fluorogenic peptidase assay, Suc-LLVY-AMC; assay type: biochemical; conditions: read-out: % inhibition at 1 mM
T2 construct: gene PSMB5; commercial purified 26S complex (BostonBiochem); beta subunits mature with N-terminal Thr; with Proteasome subunit beta type-7; Proteasome subunit beta type-6
T2 sequence (P28074 60-263): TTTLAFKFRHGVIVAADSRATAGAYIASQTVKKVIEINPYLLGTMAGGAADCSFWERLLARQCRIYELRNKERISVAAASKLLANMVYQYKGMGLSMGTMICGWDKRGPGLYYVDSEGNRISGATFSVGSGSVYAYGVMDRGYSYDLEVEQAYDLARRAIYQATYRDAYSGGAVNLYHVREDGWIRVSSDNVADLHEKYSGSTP

inhibition at 1000 µM [1]: 30%
inhibition at 1000 µM [2]: 31%
Compound: COc1cc(/C=C/C(=O)O)ccc1O [ferulic acid, 4-hydroxy-3-methoxycinnamic acid]
